Laboratory results as given in US5811441A, “Isoxazoline fibrinogen receptor antagonists” (The DuPont Merck Pharmaceutical Company, priority 1997, dated 1998).
Where a name gives a salt, the structure may show the parent alone.

These molecules were tested on platelet aggregation (platelet rich plasma (PRP)) (assay: Platelet Aggregation Assay (no esterase), platelet rich plasma). Settings: human platelet rich plasma (PRP), concentration inhibiting platelet aggregation by 50% relative to control.
Assay type: cell-based
Description: Platelet Aggregation Assay:
venous blood was obtained from the arm of a healthy human donor who was drug-free and aspirin-free for at least two weeks prior to blood collection. Blood was collected into 10 mL citrated Vacutainer tubes. The blood was centrifuged for 15 minutes at 150×g at room temperature, and platelet-rich plasma (PRP) was removed. The remaining blood was centrifuged for 15 minutes at 1500×g at room temperature, and platelet-poor plasma (PPP) was removed. Samples were assayed on a aggregometer (PAP-4 Platelet Aggregation Profiler), using PPP as the blank (100% transmittance). […] of PRP was added to each micro test tube, and transmittance was set to 0%. 20 μL of various agonists (ADP, collagen, arachidonate, epinephrine, thrombin) were added to each tube, and the aggregation profiles were plotted (% transmittance versus time). The results are expressed as % inhibition of agonist-induced platelet aggregation. For the IC50 evaluation, the test compounds were added at various concentrations prior to the activation of the platelets.
Table A below sets forth the antiplatelet activity of representative compounds of the present invention. The indicated compounds were tested for their ability to inhibit platelet aggregation (using platelet rich plasma (PRP)). The IC50 value (the concentration of antagonist which inhibits platelet aggregation by 50% relative to a control lacking the antagonist) is shown. In Table A the IC50 values are expressed as: +++=IC50 of <1 μM; ++=IC50 of 1-50 μM; +=IC50 of 50-100 μM (μM=micromolar).
In the case of `Cc1noc(C)c1S(=O)(=O)N[C@@H](CNC(=O)CC1CC(c2ccc(C(=N)N)cc2)=NO1)C(=O)O` (stereo partly drawn) [N^2-(3,5-dimethylisoxazole-4-sulfonyl)-N^3-[3-(4-amidinophenyl)isoxazolin-5(R,S)-ylacetyl]-(S)-2,3-diaminopropionateTrifluoroacetate Salt], the IC50 is reported as < 1 µM.
`Cc1noc(C)c1S(=O)(=O)N[C@@H](CNC(=O)C[C@H]1CC(c2ccc(C(=N)N)cc2)=NO1)C(=O)O` [N^2-(3,5-dimethylisoxazole-4-sulfonyl)-N^3-[3-(4-amidinophenyl)isoxazolin-5(R)-ylacetyl]-(S)-2,3-diaminopropionate Trifluoroacetate Salt] was tested, and the IC50 was < 1 µM.
In the case of `Cc1noc(C)c1S(=O)(=O)N[C@@H](CNC(=O)C[C@@H]1CC(c2ccc(C(=N)N)cc2)=NO1)C(=O)O` [N^2-(3,5-Dimethylisoxazole-4-sulfonyl)-N^3-[3-(4-amidinophenyl)isoxazolin-5(S)-ylacetyl]-(S)-2,3-diamino-propionate Trifluoroacetate Salt], the IC50 is reported as < 1 µM.
